The target of the test is human PAD4 (hPAD4) (Homo sapiens, UniProt Q9UM07). Kind of test: RFMS human PAD4 functional assay (rapid-fire mass spectrum). The class given is biochemical. The settings on record: 5 nM hPAD4 enzyme, 250 μM BAEE, 50 μM Calcium; 30 min preincubation, 90 min reaction at 37° C. In outline: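 PAD4 (10 nM) preincubated 30 min with compound (top final 50 μM), then BAEE substrate added in pH 7.5 HEPES buffer with DTT, 50 μM calcium, TPEN; 90 min at 37° C. After TCA quench, citrulline derivatized with phenyl glyoxal (4 mM final, 30 min, 37° C) and quantified by RapidFire MS against internal standard.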
human PAD4 (hPAD4), sequence (Q9UM07 whole entry): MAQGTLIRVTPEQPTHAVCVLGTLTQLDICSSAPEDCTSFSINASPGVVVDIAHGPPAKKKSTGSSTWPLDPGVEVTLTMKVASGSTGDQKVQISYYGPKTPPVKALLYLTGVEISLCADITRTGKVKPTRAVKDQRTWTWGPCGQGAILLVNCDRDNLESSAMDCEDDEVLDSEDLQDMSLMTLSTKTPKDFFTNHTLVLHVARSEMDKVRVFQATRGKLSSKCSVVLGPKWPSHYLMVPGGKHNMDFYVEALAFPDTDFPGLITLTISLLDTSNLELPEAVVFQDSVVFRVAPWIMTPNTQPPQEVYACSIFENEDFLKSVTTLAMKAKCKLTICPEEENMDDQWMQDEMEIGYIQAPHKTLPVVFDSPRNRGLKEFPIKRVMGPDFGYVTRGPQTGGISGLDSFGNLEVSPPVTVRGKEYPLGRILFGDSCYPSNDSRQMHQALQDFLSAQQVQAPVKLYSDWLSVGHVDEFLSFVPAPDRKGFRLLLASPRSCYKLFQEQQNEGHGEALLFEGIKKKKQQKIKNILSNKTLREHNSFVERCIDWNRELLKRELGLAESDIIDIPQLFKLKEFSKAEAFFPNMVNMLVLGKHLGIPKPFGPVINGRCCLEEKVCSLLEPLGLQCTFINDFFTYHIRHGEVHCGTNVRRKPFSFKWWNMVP

A word on the IC50: it is the concentration needed to halve the response being measured. Regarding `COc1cc(C(=O)N2CC3CCC2[C@@H]3N)cc2nc(-c3cc4cccnc4n3CC3CC3)n(Cc3cnn(-c4cncc(C#N)c4)c3)c12` (stereo partly drawn) [Example 346, 5-[4-({5-[(7R)-7-amino-2-azabicyclo[2.2.1]heptane-2-carbonyl]-2-[1-(cyclopropylmethyl)-1H-pyrrolo[2,3-b]pyridin-2-yl]-7-methoxy-1H-1,3-benzodiazol-1-yl}methyl)-1H-pyrazol-1-yl]pyridine-3-carbonitrile], the IC50 was found to be 0.061 µM. The same measure for `COc1cc(C(=O)N2CC3CCC2[C@@H]3N)cc2nc(-c3cc4ccccc4n3CC3CC3)n(Cc3cn(C)nn3)c12` (stereo partly drawn) [Example 503, (7R)-2-{2-[1-(cyclopropylmethyl)-1H-indol-2-yl]-7-methoxy-1-[(1-methyl-1H-1,2,3-triazol-4-yl)methyl]-1H-1,3-benzodiazole-5-carbonyl}-2-azabicyclo[2.2.1]heptan-7-amine]: 0.149 µM; for `COc1cc(C(=O)N2C[C@H]3CC[C@@H]2[C@@H]3N)cc2nc(-c3cc4cccnc4n3CC3CC3)n(CC3CN(c4cncc(C)n4)C3)c12` [Example 63, (1R,4R,7R)-2-{2-[1-(cyclopropylmethyl)-1H-pyrrolo[2,3-b]pyridin-2-yl]-7-methoxy-1-{[1-(6-methylpyrazin-2-yl)azetidin-3-yl]methyl}-1H-1,3-benzodiazole-5-carbonyl}-2-azabicyclo[2.2.1]heptan-7-amine]: 0.199 µM; for `CCOC(=O)N1CC(Cn2c(-c3cc4cccnc4n3CC3CC3)nc3cc(C(=O)N4C[C@H]5CC[C@@H]4[C@@H]5N)cc(OC)c32)C1` [Example 130, ethyl 3-({5-[(1R,4R,7R)-7-amino-2-azabicyclo[2.2.1]heptane-2-carbonyl]-2-[1-(cyclopropylmethyl)-1H-pyrrolo[2,3-b]pyridin-2-yl]-7-methoxy-1H-1,3-benzodiazol-1-yl}methyl)azetidine-1-carboxylate]: 0.128 µM.

Regarding `COc1cc(C(=O)N2C[C@H]3CC[C@@H]2[C@@H]3N)cc2nc(-c3cc4cccnc4n3CC3CC3)n(CC3CCN(C(=O)c4ccnc(Cl)c4)CC3)c12` [Example 198, (1R,4R,7R)-2-(1-{[1-(2-chloropyridine-4-carbonyl)piperidin-4-yl]methyl}-2-[1-(cyclopropylmethyl)-1H-pyrrolo[2,3-b]pyridin-2-yl]-7-methoxy-1H-1,3-benzodiazole-5-carbonyl)-2-azabicyclo[2.2.1]heptan-7-amine], the IC50 was determined as 0.131 µM.

`COc1cc(C(=O)N2CC3CCC2[C@@H]3N)cc2nc(-c3cc4cccnc4n3CC3CC3)n(C3CN(S(=O)(=O)C4CC4)C3)c12` (stereo partly drawn) [Example 328]: the IC50 was found to be 0.125 µM. The same measure for `COc1cc(C(=O)N2C[C@H]3CC[C@@H]2[C@@H]3N)cc2nc(-c3cc4cccnc4n3CC3CC3)n(C3CN(C(=O)c4ccncn4)C3)c12` [Example 100, (1R,4R,7R)-2-{2-[1-(cyclopropylmethyl)-1H-pyrrolo[2,3-b]pyridin-2-yl]-7-methoxy-1-[1-(pyrimidine-4-carbonyl)azetidin-3-yl]-1H-1,3-benzodiazole-5-carbonyl}-2-azabicyclo[2.2.1]heptan-7-amine]: 0.117 µM; for `COc1ccc(-n2cc(Cn3c(-c4cc5ccccc5n4CC4CC4)nc4cc(C(=O)N5CC6CCC5[C@@H]6N)cc(OC)c43)cn2)cn1` (stereo partly drawn) [Example 354, (7R)-2-{2-[1-(cyclopropylmethyl)-1H-indol-2-yl]-7-methoxy-1-{[1-(6-methoxypyridin-3-yl)-1H pyrazol-4-yl]methyl}-1H-1,3-benzodiazole-5-carbonyl}-2-azabicyclo[2.2.1]heptan-7-amine]: 0.022 µM. `COc1cc(C(=O)N2C[C@H]3CC[C@@H]2[C@@H]3N)cc2nc(-c3cc4ccccc4n3CC3CC3)n(Cc3ccc(N)nc3)c12` [Example 244, (1R,4R,7R)-2-{1-[(6-aminopyridin-3-yl)methyl]-2-[1-(cyclopropylmethyl)-1H-indol-2-yl]-7-methoxy-1H-1,3-benzodiazole-5-carbonyl}-2-azabicyclo[2.2.1]heptan-7-amine]: the half-maximal inhibitory concentration (IC50) worked out at 0.011 µM. The result for `COc1cc(C(=O)N2CC3CCC2[C@@H]3N)cc2nc(-c3cc4cccnc4n3CC3CC3)n([C@H]3C[C@H](NC(=O)c4cc[nH]c(=O)c4)C3)c12` (stereo partly drawn) [Example 299, 2-oxo-N-[(1r,3r)-3-{5-[(1R,4R,7R)-7-amino-2-azabicyclo[2.2.1]heptane-2-carbonyl]-2-[1-(cyclopropylmethyl)-1H-pyrrolo[2,3-b]pyridin-2-yl]-7-methoxy-1H-1,3-benzodiazol-1-yl}cyclobutyl]-1,2-dihydropyridine-4-carboxamide] reads 0.603 µM; that for `COc1cc(C(=O)N2C[C@H]3CC[C@@H]2[C@@H]3N)cc2nc(-c3cc4cccnc4n3CC3CC3)n(CC3CN(C(C)=O)C3)c12` [Example 187, 1-[3-({5-[(1R,4R,7R)-7-amino-2-azabicyclo[2.2.1]heptane-2-carbonyl]-2-[1-(cyclopropylmethyl)-1H-pyrrolo[2,3-b]pyridin-2-yl]-7-methoxy-1H-1,3-benzodiazol-1-yl}methyl)azetidin-1-yl]ethan-1-one], 0.358 µM; that for `N#Cc1ccc(C(=O)N2CC(Cn3c(-c4cc5cccnc5n4CC4CC4)nc4cc(C(=O)N5C[C@H]6CC[C@@H]5[C@@H]6N)cc(Cl)c43)C2)cc1` [Example 96, 4-[3-({5-[(1R,4R,7R)-7-amino-2-azabicyclo[2.2.1]heptane-2-carbonyl]-7-chloro-2-[1-(cyclopropylmethyl)-1H-pyrrolo[2,3-b]pyridin-2-yl]-1H-1,3-benzodiazol-1-yl}methyl)azetidine-1-carbonyl]benzonitrile], 0.083 µM. The same measure for `COc1cc(C(=O)N2C[C@H]3CC[C@@H]2[C@@H]3N)cc2nc(-c3cc4cccnc4n3CC3CC3)n(CC3CN(C(=O)c4ccnc(Cl)c4)C3)c12` [Example 107, (1R,4R,7R)-2-(1-{[1-(2-chloropyridine-4-carbonyl)azetidin-3-yl]methyl}-2-[1-(cyclopropylmethyl)-1H-pyrrolo[2,3-b]pyridin-2-yl]-7-methoxy-1H-1,3-benzodiazole-5-carbonyl)-2-azabicyclo[2.2.1]heptan-7-amine]: 0.033 µM. With `COc1cc(C(=O)N2C[C@H](N)C[C@@H](F)C2)cc2nc(-c3cc4ccccc4n3CC3CC3)n(Cc3ccccc3)c12` [Example 282, (3R,5R)-1-{1-benzyl-2-[1-(cyclopropylmethyl)-1H-indol-2-yl]-7-methoxy-1H-1,3-benzodiazole-5-carbonyl}-5-fluoropiperidin-3-amine], the 50% inhibitory concentration (IC50) amounted to 0.78 µM. The result for “5-(4-((5-((1R,4R,7R)-7-amino-2-azabicyclo[2.2.1]heptane-2-carbonyl)-2-(1-(cyclopropylmethyl)-1H-pyrrolo[2,3-b]pyridin-2-yl)-7-methoxy-1H-benzo[d]imidazol-1-yl)methyl)piperdine-1-carbonyl)pyrimidine-2-carbonitrile [Example 194]” reads 0.074 µM; that for `COc1cc(C(=O)N2C[C@H]3CC[C@@H]2[C@@H]3N)cc2nc(-c3cc4cccnc4n3CC3CC3)n(C3CN(c4cnc(C#N)nc4)C3)c12` [Example 75, 5-(3-{5-[(1R,4R,7R)-7-amino-2-azabicyclo[2.2.1]heptane-2-carbonyl]-2-[1-(cyclopropylmethyl)-1H-pyrrolo[2,3-b]pyridin-2-yl]-7-methoxy-1H-1,3-benzodiazol-1-yl}azetidin-1-yl)pyrimidine-2-carbonitrile], 0.216 µM; that for `COc1cc(C(=O)N2CC3CCC2[C@@H]3N)cc2nc(-c3cc4ccccc4n3CC3CC3)n(Cc3cnn(-c4ccc(C)nc4)c3)c12` (stereo partly drawn) [Example 350, (7R)-2-{2-[1-(cyclopropylmethyl)-1H-indol-2-yl]-7-methoxy-1-{[1-(6-methylpyridin-3-yl)-1H-pyrazol-4-yl]methyl}-1H-1,3-benzodiazole-5-carbonyl}-2-azabicyclo[2.2.1]heptan-7-amine], 0.016 µM. The result for `COc1cc(C(=O)N2C[C@H]3CC[C@@H]2[C@@H]3N)cc2nc(-c3cc4cccnc4n3CC3CC3)n(C3CN(c4ccncn4)C3)c12` [Example 86, (1R,4R,7R)-2-{2-[1-(cyclopropylmethyl)-1H-pyrrolo[2,3-b]pyridin-2-yl]-7-methoxy-1-[1-(pyrimidin-4-yl)azetidin-3-yl]-1H-1,3-benzodiazole-5-carbonyl}-2-azabicyclo[2.2.1]heptan-7-amine] reads 1.68 µM.

Consider `COc1cc(C(=O)N2C[C@H]3CC[C@@H]2[C@@H]3N)cc2nc(-c3csc4ccc(Cl)cc34)n(CC3CN(c4ccnc(C)n4)C3)c12` [Example 324, (1R,4R,7R)-2-[2-(5-chloro-1-benzothiophen-3-yl)-7-methoxy-1-{[1-(2-methylpyrimidin-4-yl)azetidin-3-yl]methyl}-1H-1,3-benzodiazole-5-carbonyl]-2-azabicyclo[2.2.1]heptan-7-amine], for which the IC50 is 1.88 µM.

For `COc1cc(C(=O)N2C[C@H]3CC[C@@H]2[C@@H]3N)cc2nc(-c3cc4cccnc4n3CC3CC3)n(CC3CN(C(=O)c4cc[nH]c(=O)c4)C3)c12` [Example 182, 4-[3-({5-[(1R,4R,7R)-7-amino-2-azabicyclo[2.2.1]heptane-2-carbonyl]-2-[1-(cyclopropylmethyl)-1H-pyrrolo[2,3-b]pyridin-2-yl]-7-methoxy-1H-1,3-benzodiazol-1-yl}methyl)azetidine-1-carbonyl]-1,2-dihydropyridin-2-one], the IC50 was 0.204 µM. The same measure for `COc1cc(C(=O)N2C[C@H](N)C[C@@H](F)C2)cc2nc(-c3cc4cccnc4n3CC3CC3)n(CC3(F)CN(C(=O)c4ccccc4)C3)c12` [Example 468, (3R,5R)-1-{1-[(1-benzoyl-3-fluoroazetidin-3-yl)methyl]-2-[1-(cyclopropylmethyl)-1H-pyrrolo[2,3-b]pyridin-2-yl]-7-methoxy-1H-1,3-benzodiazole-5-carbonyl}-5-fluoropiperidin-3-amine]: 0.099 µM.
